In ChEMBL document CHEMBL3885881, “DrugMatrix”:

Species: Rattus norvegicus
Assay: DrugMatrix - Regimen: Daily Repeat
Format: toxicity, organism-based, Sprague-Dawley
Set-up: regimen Daily Repeat, gender Male, age 6-8 weeks
Details: in vivo, po, route oral GAVAGE, […]; for ABSOLUTE BASOPHIL / ABSOLUTE EOSINOPHIL / ABSOLUTE LYMPHOCYTE / ABSOLUTE MONOCYTE / ABSOLUTE SEGMENTED NEUTROPHIL / BASOPHIL / EOSINOPHIL / ERYTHROCYTE COUNT / HEMATOCRIT / HEMOGLOBIN / LEUKOCYTE COUNT / LYMPHOCYTE / MEAN CORPUSCULAR HEMOGLOBIN / MEAN CORPUSCULAR HEMOGLOBIN CONCENTRATION / MEAN CORPUSCULAR VOLUME / MONOCYTE / NEUTROPHIL / NUCLEATED RED BLOOD CELLS / PLATELET COUNT: tissue Blood; for ALANINE AMINOTRANSFERASE / ALBUMIN / ALKALINE PHOSPHATASE / ASPARTATE AMINOTRANSFERASE / BLOOD UREA NITROGEN / CARBON DIOXIDE / CHLORIDE / CHOLESTEROL / CREATINE PHOSPHOKINASE / CREATININE / GLUCOSE / LACTATE DEHYDROGENASE / LIPASE / PHOSPHORUS / POTASSIUM / SODIUM / TOTAL BILIRUBIN / TOTAL PROTEIN / URIC ACID: tissue Plasma
[1] = 0 mg/kg, 72 h, dose level Control, time 3 day
[2] = 0 mg/kg, 120 h, dose level Control, time 5 day
[3] = 30 mg/kg, 72 h, dose level Low, time 3 day

Cc1oncc1C(=O)Nc1ccc(C(F)(F)F)cc1 [LEFLUNOMIDE]
ABSOLUTE BASOPHIL [1]: 0 CELLS/uL | ABSOLUTE EOSINOPHIL [1]: 52.33 CELLS/uL | ABSOLUTE LYMPHOCYTE [1]: 9105.33 CELLS/uL | ABSOLUTE MONOCYTE [1]: 155.67 CELLS/uL | ABSOLUTE SEGMENTED NEUTROPHIL [1]: 1020 CELLS/uL | BASOPHIL [1]: 0% | EOSINOPHIL [1]: 0.33% | ERYTHROCYTE COUNT [1]: 5.03 x10E6/uL | HEMATOCRIT [1]: 31.63% | HEMOGLOBIN [1]: 12.37 G/DL | LEUKOCYTE COUNT [1]: 10.33 x10E3/uL | LYMPHOCYTE [1]: 87% | MEAN CORPUSCULAR HEMOGLOBIN [1]: 24.57 pg | MEAN CORPUSCULAR HEMOGLOBIN CONCENTRATION [1]: 39.07 G/DL | MEAN CORPUSCULAR VOLUME [1]: 62.93 fL | MONOCYTE [1]: 1.33% | NEUTROPHIL [1]: 11.33% | NUCLEATED RED BLOOD CELLS [1]: 0 /100WBC | PLATELET COUNT [1]: 896 x10E3/uL | ALANINE AMINOTRANSFERASE [1]: 75.33 u/L | ALBUMIN [1]: 3.77 G/DL | ALKALINE PHOSPHATASE [1]: 378.67 u/L | ASPARTATE AMINOTRANSFERASE [1]: 101.33 u/L | BLOOD UREA NITROGEN [1]: 11.33 mg/dL | CARBON DIOXIDE [1]: 25 mmol/L | CHLORIDE [1]: 99 MEQ/L | CHOLESTEROL [1]: 66 mg/dL | CREATINE PHOSPHOKINASE [1]: 277 u/L | CREATININE [1]: 0.33 mg/dL | GLUCOSE [1]: 198.33 mg/dL | LACTATE DEHYDROGENASE [1]: 140.33 u/L | LIPASE [1]: 11.33 u/L | PHOSPHORUS [1]: 11.83 mg/dL | POTASSIUM [1]: 5.37 MEQ/L | SODIUM [1]: 141.03 MEQ/L | TOTAL BILIRUBIN [1]: 0.2 mg/dL | TOTAL PROTEIN [1]: 5.47 G/DL | URIC ACID [1]: 0.93 mg/dL | ABSOLUTE BASOPHIL [2]: 0 CELLS/uL | ABSOLUTE EOSINOPHIL [2]: 0 CELLS/uL | ABSOLUTE LYMPHOCYTE [2]: 8734 CELLS/uL | ABSOLUTE MONOCYTE [2]: 98.67 CELLS/uL | ABSOLUTE SEGMENTED NEUTROPHIL [2]: 1034 CELLS/uL | BASOPHIL [2]: 0% | EOSINOPHIL [2]: 0% | ERYTHROCYTE COUNT [2]: 5.19 x10E6/uL | HEMATOCRIT [2]: 33.2% | HEMOGLOBIN [2]: 12.93 G/DL | LEUKOCYTE COUNT [2]: 9.87 x10E3/uL | LYMPHOCYTE [2]: 87% | MEAN CORPUSCULAR HEMOGLOBIN [2]: 25 pg | MEAN CORPUSCULAR HEMOGLOBIN CONCENTRATION [2]: 39.03 G/DL | MEAN CORPUSCULAR VOLUME [2]: 63.93 fL | MONOCYTE [2]: 1% | NEUTROPHIL [2]: 12% | NUCLEATED RED BLOOD CELLS [2]: 0 /100WBC | PLATELET COUNT [2]: 1190 x10E3/uL | ALANINE AMINOTRANSFERASE [2]: 75.67 u/L | ALBUMIN [2]: 4 G/DL | ALKALINE PHOSPHATASE [2]: 384.33 u/L | ASPARTATE AMINOTRANSFERASE [2]: 89.67 u/L | BLOOD UREA NITROGEN [2]: 13 mg/dL | CARBON DIOXIDE [2]: 32.67 mmol/L | CHLORIDE [2]: 103 MEQ/L | CHOLESTEROL [2]: 79.67 mg/dL | CREATINE PHOSPHOKINASE [2]: 199.33 u/L | CREATININE [2]: 0.29 mg/dL | GLUCOSE [2]: 161.33 mg/dL | LACTATE DEHYDROGENASE [2]: 92.33 u/L | LIPASE [2]: 11.67 u/L | PHOSPHORUS [2]: 10.8 mg/dL | POTASSIUM [2]: 5.38 MEQ/L | SODIUM [2]: 145.3 MEQ/L | TOTAL BILIRUBIN [2]: 0.17 mg/dL | TOTAL PROTEIN [2]: 5.7 G/DL | URIC ACID [2]: 0.63 mg/dL | ABSOLUTE BASOPHIL [3]: 0 CELLS/uL | ABSOLUTE EOSINOPHIL [3]: 0 CELLS/uL | ABSOLUTE LYMPHOCYTE [3]: 5968 CELLS/uL | ABSOLUTE MONOCYTE [3]: 69 CELLS/uL | ABSOLUTE SEGMENTED NEUTROPHIL [3]: 863 CELLS/uL | BASOPHIL [3]: 0% | EOSINOPHIL [3]: 0% | ERYTHROCYTE COUNT [3]: 5.11 x10E6/uL | HEMATOCRIT [3]: 32.33% | HEMOGLOBIN [3]: 12.8 G/DL | LEUKOCYTE COUNT [3]: 6.9 x10E3/uL | LYMPHOCYTE [3]: 87% | MEAN CORPUSCULAR HEMOGLOBIN [3]: 25.03 pg | MEAN CORPUSCULAR HEMOGLOBIN CONCENTRATION [3]: 39.63 G/DL | MEAN CORPUSCULAR VOLUME [3]: 63.2 fL | MONOCYTE [3]: 1% | NEUTROPHIL [3]: 12% | NUCLEATED RED BLOOD CELLS [3]: 0 /100WBC | PLATELET COUNT [3]: 794.67 x10E3/uL | ALANINE AMINOTRANSFERASE [3]: 46.33 u/L | ALBUMIN [3]: 3.67 G/DL | ALKALINE PHOSPHATASE [3]: 251.33 u/L | ASPARTATE AMINOTRANSFERASE [3]: 75.67 u/L | BLOOD UREA NITROGEN [3]: 8 mg/dL | CARBON DIOXIDE [3]: 29.67 mmol/L | CHLORIDE [3]: 101.33 MEQ/L | CHOLESTEROL [3]: 98.67 mg/dL | CREATINE PHOSPHOKINASE [3]: 199.67 u/L | CREATININE [3]: 0.1 mg/dL | GLUCOSE [3]: 181.33 mg/dL | LACTATE DEHYDROGENASE [3]: 70 u/L | LIPASE [3]: 10.67 u/L | PHOSPHORUS [3]: 9.87 mg/dL | POTASSIUM [3]: 4.69 MEQ/L | SODIUM [3]: 144.17 MEQ/L | TOTAL BILIRUBIN [3]: 0.13 mg/dL | TOTAL PROTEIN [3]: 5.17 G/DL | URIC ACID [3]: 0.53 mg/dL
